This assay concerns the target T1, HEK cells stably transfected with tetracycline inducible hNR1 and hNR2A (Homo sapiens, UniProt Q05586+Q12879).
T1 construct: expressed in transfected cells; host or cells: HEK cells, stably transfected, tetracycline/doxycycline inducible
Description: Assay 1: Cell-Based Assay, cytosolic calcium response to positive allosteric modulators (with 30 μM glycine and 300 nM L-glutamate, EC30). The conditions noted are these: Table 3; cytosolic calcium response, with 30 μM glycine and 300 nM L-glutamate (EC30); — = no plateau was reached. Put shortly:
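Cells induced 24 h with 7.5 μg mL^−1 doxycycline plus 500 μM (+)-ketamine, loaded 60 min at 37 °C with calcium dye in Mg-free HBSS (1.8 mM Ca, probenecid, 10 μM (+)-ketamine, pH 7.15). Peak RFU over 5 min after compound addition, scaled to 100 μM L-glutamate (100%) and 0 μM (0%); four-parameter Hill fit for EC50, max % if no plateau.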

SMILES strings stand for the structures. pEC50: −log10 of the molar value.

T1 sequence (Q12879 23-1464, other chains not shown): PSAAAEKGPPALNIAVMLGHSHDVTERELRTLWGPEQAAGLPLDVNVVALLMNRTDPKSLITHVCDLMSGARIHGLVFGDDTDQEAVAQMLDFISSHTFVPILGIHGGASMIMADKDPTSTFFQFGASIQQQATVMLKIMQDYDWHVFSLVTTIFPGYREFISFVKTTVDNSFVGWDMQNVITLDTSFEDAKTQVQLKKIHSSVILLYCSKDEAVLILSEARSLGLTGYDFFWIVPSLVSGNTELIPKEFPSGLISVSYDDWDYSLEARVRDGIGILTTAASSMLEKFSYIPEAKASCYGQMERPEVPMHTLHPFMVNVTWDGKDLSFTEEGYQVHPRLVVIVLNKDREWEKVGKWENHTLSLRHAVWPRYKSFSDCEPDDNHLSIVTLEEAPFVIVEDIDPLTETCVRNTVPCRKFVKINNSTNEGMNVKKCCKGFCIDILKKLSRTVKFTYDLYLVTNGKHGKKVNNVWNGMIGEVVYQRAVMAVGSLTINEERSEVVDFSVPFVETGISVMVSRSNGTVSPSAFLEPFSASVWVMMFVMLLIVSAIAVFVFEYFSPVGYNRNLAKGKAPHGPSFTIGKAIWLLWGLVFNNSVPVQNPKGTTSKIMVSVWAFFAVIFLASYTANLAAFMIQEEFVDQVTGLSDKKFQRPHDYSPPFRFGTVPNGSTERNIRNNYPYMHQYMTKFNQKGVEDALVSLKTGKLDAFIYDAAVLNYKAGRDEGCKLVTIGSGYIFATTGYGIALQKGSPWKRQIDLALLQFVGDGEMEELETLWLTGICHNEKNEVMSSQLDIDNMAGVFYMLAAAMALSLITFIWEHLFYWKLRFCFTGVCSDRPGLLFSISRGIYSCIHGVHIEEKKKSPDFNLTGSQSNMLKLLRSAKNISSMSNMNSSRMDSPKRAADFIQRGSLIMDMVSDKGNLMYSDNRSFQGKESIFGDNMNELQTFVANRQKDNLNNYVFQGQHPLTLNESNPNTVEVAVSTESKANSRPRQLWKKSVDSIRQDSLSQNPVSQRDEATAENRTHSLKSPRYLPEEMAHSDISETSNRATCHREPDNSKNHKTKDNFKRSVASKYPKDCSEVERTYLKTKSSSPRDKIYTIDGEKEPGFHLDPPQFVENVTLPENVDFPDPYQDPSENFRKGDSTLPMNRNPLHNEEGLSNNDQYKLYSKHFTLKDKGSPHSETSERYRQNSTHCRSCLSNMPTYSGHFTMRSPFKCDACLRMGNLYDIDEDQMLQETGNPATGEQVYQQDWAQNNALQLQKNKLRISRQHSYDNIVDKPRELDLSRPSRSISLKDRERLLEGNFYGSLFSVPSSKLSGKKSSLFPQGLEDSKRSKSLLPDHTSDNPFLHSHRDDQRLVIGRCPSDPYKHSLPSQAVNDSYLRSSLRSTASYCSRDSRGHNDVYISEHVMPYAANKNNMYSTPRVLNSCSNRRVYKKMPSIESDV

As for `Cc1sc2nc(Cn3nc(Cl)cc3C(F)(F)F)cc(=O)n2c1C1CC1` [compound 117, 7-[[3-chloro-5-(trifluoromethyl)pyrazol-1-yl]methyl]-3-cyclopropyl-2-methyl-thiazolo[3,2-a]pyrimidin-5-one], the negative-log EC50 (pEC50) – broadly, the EC50 on a negative log10 scale, so that one unit is a factor of ten – is 5.99.

Take `Cc1sc2nc(Cn3nc(C(F)(F)F)cc3Cl)cc(=O)n2c1C1CC1C` (centres unmarked) [compound 118, 7-[[5-chloro-3-(trifluoromethyl)pyrazol-1-yl]methyl]-2-methyl-3-(2-methylcyclopropyl)thiazolo[3,2-a]pyrimidin-5-one]: the pEC50 was 6.77. With `CC(=O)c1c(C)sc2nc(Cn3nc(C(F)(F)F)cc3Cl)cc(=O)n12` [compound 119, 3-acetyl-7-[[5-chloro-3-(trifluoromethyl)pyrazol-1-yl]methyl]-2-methyl-thiazolo[3,2-a]pyrimidin-5-one] the figure was 6.49; with `CC(=O)c1c(C)sc2nc(Cn3nc(Cl)cc3C(F)(F)F)cc(=O)n12` [compound 120, 3-acetyl-7-[[3-chloro-5-(trifluoromethyl)pyrazol-1-yl]methyl]-2-methyl-thiazolo[3,2-a]pyrimidin-5-one], 6.00. For the compound `CC1CC1c1c(Cl)sc2nc(Cc3cccc(C(F)(F)F)c3F)cc(=O)n12` (centres unmarked) [compound 121, 2-chloro-7-[[2-fluoro-3-(trifluoromethyl)phenyl]methyl]-3-(2-methylcyclopropyl)thiazolo[3,2-a]pyrimidin-5-one], the pEC50 is 4.75.

Turning to `Cc1sc2nc(Cn3nc(Cl)cc3C(F)(F)F)cc(=O)n2c1-c1cncnc1` [compound 122, 7-[[3-chloro-5-(trifluoromethyl)pyrazol-1-yl]methyl]-2-methyl-3-pyrimidin-5-yl-thiazolo[3,2-a]pyrimidin-5-one], the pEC50 was 5.04.

`CCNC(=O)c1c(C)sc2nc(Cn3nc(C4CC4)cc3C(F)(F)F)cc(=O)n12` [compound 123, 7-[[3-cyclopropyl-5-(trifluoromethyl)pyrazol-1-yl]methyl]-N-ethyl-2-methyl-5-oxo-thiazolo[3,2-a]pyrimidine-3-carboxamide]: the pEC50 was 5.59. With `CCNC(=O)c1c(C)sc2nc(CN(C)c3ccc(Cl)cn3)cc(=O)n12` [compound 124, 7-[[(5-chloro-2-pyridyl)-methyl-amino]methyl]-N-ethyl-2-methyl-5-oxo-thiazolo[3,2-a]pyrimidine-3-carboxamide] the figure was 5.23; with `CCNC(=O)c1c(OC)sc2nc(Cn3nc(Cl)cc3C(F)(F)F)cc(=O)n12` [compound 127, 7-[[3-chloro-5-(trifluoromethyl)pyrazol-1-yl]methyl]-N-ethyl-2-methoxy-5-oxo-thiazolo[3,2-a]pyrimidine-3-carboxamide], 5.31. With `CCNC(=O)c1c(OC)sc2nc(Cn3nc(C(F)(F)F)cc3Cl)cc(=O)n12` [compound 128, 7-[[5-chloro-3-(trifluoromethyl)pyrazol-1-yl]methyl]-N-ethyl-2-methoxy-5-oxo-thiazolo[3,2-a]pyrimidine-3-carboxamide] the figure was 6.17; with `CCNC(=O)c1c(OC)sc2nc(Cn3nc(C(F)(F)F)cc3C3CC3)cc(=O)n12` [compound 129, 7-[[5-cyclopropyl-3-(trifluoromethyl)pyrazol-1-yl]methyl]-N-ethyl-2-methoxy-5-oxo-thiazolo[3,2-a]pyrimidine-3-carboxamide], 6.11.

`CCNC(=O)c1c(OC)sc2nc(Cn3nc(C4CC4)cc3C(F)(F)F)cc(=O)n12` [compound 130, 7-[[3-cyclopropyl-5-(trifluoromethyl)pyrazol-1-yl]methyl]-N-ethyl-2-methoxy-5-oxo-thiazolo[3,2-a]pyrimidine-3-carboxamide]: the pEC50 is 5.16. As for `Cc1sc2nc(Cc3cccc(C(F)(F)F)c3F)cc(=O)n2c1C1CC1C#N` (centres unmarked) [compound 131, 2-[7-[[2-fluoro-3-(trifluoromethyl)phenyl]methyl]-2-methyl-5-oxo-thiazolo[3,2-a]pyrimidin-3-yl]cyclopropanecarbonitrile], the negative-log EC50 (pEC50) is 6.17. On to `Cc1sc2nc(Cn3nc(C(F)(F)F)cc3Cl)cc(=O)n2c1-c1ccn[nH]1` [compound 132], for which the pEC50 is 5.69. Take `Cc1sc2nc(Cn3nc(Cl)cc3C(F)(F)F)cc(=O)n2c1-c1ccn[nH]1` [compound 133, 7-[[3-chloro-5-(trifluoromethyl)pyrazol-1-yl]methyl]-2-methyl-3-(1H-pyrazol-5-yl)thiazolo[3,2-a]pyrimidin-5-one]: the pEC50 is 5.00. The same measure for `Cc1sc2nc(Cn3nc(C(F)(F)F)cc3Cl)cc(=O)n2c1-c1cccnc1` [compound 134, 7-[[5-chloro-3-(trifluoromethyl)pyrazol-1-yl]methyl]-2-methyl-3-(3-pyridyl)thiazolo[3,2-a]pyrimidin-5-one]: 6.30; for `C=C(C)c1c(C)sc2nc(Cn3nc(C(F)(F)F)cc3Cl)cc(=O)n12` [compound 135, 7-[[5-chloro-3-(trifluoromethyl)pyrazol-1-yl]methyl]-3-isopropenyl-2-methyl-thiazolo[3,2-a]pyrimidin-5-one]: 6.40. The same measure for `Cc1sc2nc(Cn3nc(C(F)(F)F)cc3Cl)cc(=O)n2c1-c1cncc(F)c1` [compound 138, 7-[[5-chloro-3-(trifluoromethyl)pyrazol-1-yl]methyl]-3-(5-fluoro-3-pyridyl)-2-methyl-thiazolo[3,2-a]pyrimidin-5-one]: 6.11; for `Cc1sc2nc(Cn3nc(Cl)cc3C(F)(F)F)cc(=O)n2c1-c1cncc(F)c1` [compound 139, 7-[[3-chloro-5-(trifluoromethyl)pyrazol-1-yl]methyl]-3-(5-fluoro-3-pyridyl)-2-methyl-thiazolo[3,2-a]pyrimidin-5-one]: 5.20; for `CCC(=O)c1c(C)sc2nc(Cn3nc(C(F)(F)F)cc3Cl)cc(=O)n12` [compound 140, 7-[[5-chloro-3-(trifluoromethyl)pyrazol-1-yl]methyl]-2-methyl-3-propanoyl-thiazolo[3,2-a]pyrimidin-5-one]: 6.83. The same measure for `CCC(=O)c1c(C)sc2nc(Cn3nc(Cl)cc3C(F)(F)F)cc(=O)n12` [compound 141, 7-[[3-chloro-5-(trifluoromethyl)pyrazol-1-yl]methyl]-2-methyl-3-propanoyl-thiazolo[3,2-a]pyrimidin-5-one]: 6.48; for `Cc1sc2nc(Cn3nc(C(F)(F)F)cc3Cl)cc(=O)n2c1-c1nccs1` [compound 142, 7-[[5-chloro-3-(trifluoromethyl)pyrazol-1-yl]methyl]-2-methyl-3-thiazol-2-yl-thiazolo[3,2-a]pyrimidin-5-one]: 5.68. As for `CCNC(=O)c1c(C)sc2nc(CN(C)c3ccc(F)cn3)cc(=O)n12` [compound 143, N-ethyl-7-[[(5-fluoro-2-pyridyl)-methyl-amino]methyl]-2-methyl-5-oxo-thiazolo[3,2-a]pyrimidine-3-carboxamide], the pEC50 was 4.92. With `N#CC1CC1c1c(C(F)(F)F)sc2nc(Cn3nc(C(F)(F)F)cc3Cl)cc(=O)n12` (centres unmarked) [compound 144, 2-[7-[[5-chloro-3-(trifluoromethyl)pyrazol-1-yl]methyl]-5-oxo-2-(trifluoromethyl)thiazolo[3,2-a]pyrimidin-3-yl]cyclopropanecarbonitrile] the figure was 7.39. The same measure for `N#CC1CC1c1c(C(F)(F)F)sc2nc(Cn3nc(Cl)cc3C(F)(F)F)cc(=O)n12` (centres unmarked) [compound 145, 2-[7-[[3-chloro-5-(trifluoromethyl)pyrazol-1-yl]methyl]-5-oxo-2-(trifluoromethyl)thiazolo[3,2-a]pyrimidin-3-yl]cyclopropanecarbonitrile]: 6.88; for `N#Cc1cccc(Cc2cc(=O)n3c(C4CC4C(F)(F)F)c(C(F)(F)F)sc3n2)c1F` (centres unmarked) [compound 146, 2-fluoro-3-[[5-oxo-2-(trifluoromethyl)-3-[2-(trifluoromethyl)cyclopropyl]thiazolo[3,2-a]pyrimidin-7-yl]methyl]benzonitrile]: 6.81. With `CCNC(=O)c1c(C)sc2nc(CN(CC)c3ccc(F)cn3)cc(=O)n12` [compound 147, N-ethyl-7-[[ethyl-(5-fluoro-2-pyridyl)amino]methyl]-2-methyl-5-oxo-thiazolo[3,2-a]pyrimidine-3-carboxamide] the figure was 5.70; with `CCNC(=O)c1c(C)sc2nc(CN(CC)c3ccccn3)cc(=O)n12` [compound 148, N-ethyl-7-[[ethyl(2-pyridyl)amino]methyl]-2-methyl-5-oxo-thiazolo[3,2-a]pyrimidine-3-carboxamide], 4.68. Regarding `Cc1sc2nc(Cn3nc(C(F)(F)F)cc3Cl)cc(=O)n2c1-c1cncc(Cl)c1` [compound 149, 3-(5-chloro-3-pyridyl)-7-[[5-chloro-3-(trifluoromethyl)pyrazol-1-yl]methyl]-2-methyl-thiazolo[3,2-a]pyrimidin-5-one], the pEC50 was 6.14. Regarding `Cc1sc2nc(Cn3nc(Cl)cc3C(F)(F)F)cc(=O)n2c1-c1cncc(Cl)c1` [compound 150, 3-(5-chloro-3-pyridyl)-7-[[3-chloro-5-(trifluoromethyl)pyrazol-1-yl]methyl]-2-methyl-thiazolo[3,2-a]pyrimidin-5-one], the pEC50 is 4.76. The same measure for `Cc1sc2nc(Cn3nc(C(F)(F)F)cc3Cl)cc(=O)n2c1-c1cscn1` [compound 151, 7-[[5-chloro-3-(trifluoromethyl)pyrazol-1-yl]methyl]-2-methyl-3-thiazol-4-yl-thiazolo[3,2-a]pyrimidin-5-one]: 6.27; for `CCNC(=O)c1c(C)sc2nc(CN(CC)c3ccc(Cl)cn3)cc(=O)n12` [compound 152, 7-[[(5-chloro-2-pyridyl)-ethyl-amino]methyl]-N-ethyl-2-methyl-5-oxo-thiazolo[3,2-a]pyrimidine-3-carboxamide]: 5.55.
